Measurements: publication PMC5748281 (ACS Omega, 2017)
“Also recorded” adds a separate entry of the source. Read-outs that look alike come from different tables or passages of the source.

Key:
yeast cells = details: cited from earlier work
S. cerevisiae [1] = experiment: Growth inhibition assay, 96-well microplate format; format: cell-based, Saccharomyces cerevisiae; details: for IC80: read-out: log 1/IC80 Obsd (converted)
S. cerevisiae [2] = experiment: DEL; details: IC80 concentration; for Induction of deletion, fold increase over untreated control, Obsd: 17 h, DEL(URA3) strain, average of three samples; for deletion formation / genotoxicity in words: DEL assay
yeast = details: aniline metabolites in yeast; cited from earlier work
Water solubility = format: physicochemical; details: water / assay medium
[3] = system: DNA repair null mutant yeast strains; format: cell-based, Saccharomyces cerevisiae
[4] = Saccharomyces cerevisiae, 17 h, read-out: log 1/IC50 Obsd (converted)

Compound	log 1/ICFR50 Obsd (yeast cells)	IC50 (S. cerevisiae [1]; [4])	IC80 (S. cerevisiae [1]; Saccharomyces cerevisiae, 17 h)	further results
Oc1c(Cl)c(Cl)c(Cl)c(Cl)c1Cl [2,3,4,5,6-Cl5]	3.96			
Oc1c(F)c(F)c(F)c(F)c1F [2,3,4,5,6-F5]	2.05			
Oc1cc(Cl)c(Cl)c(Cl)c1Cl [2,3,4,5-Cl4]	3.92			
Oc1cccc(Cl)c1Cl [2,3-Cl2]	2.68			
Oc1cc(Cl)c(Cl)cc1Cl [2,4,5-Cl3]	3.26			
Oc1c(I)cc(I)cc1I [2,4,6-(I)3]	4.3			
Oc1c(Cl)cc(Cl)cc1Cl [2,4,6-Cl3]	3.28			
Oc1ccc(Cl)cc1Cl [2,4-Cl2]	2.77			
Oc1c(Cl)cccc1Cl [2,6-Cl2]	2.52			
Oc1ccccc1Br [2-Br]	2.08			
COc1ccc(O)c(C(C)(C)C)c1 [2-C(CH3)3,4-OCH3, 2-tert-butyl-4-methoxy-phenol]		288 µM	407 µM	Induction of deletion, fold increase over untreated control, Obsd (S. cerevisiae [2]): 2.57 fold; Induction of deletion, fold increase over untreated control, Obsd (S. cerevisiae [2]; listed as BHA-2): greater than 2 fold
Cc1ccc(O)c(N)c1 [2-NH2,4-CH3]	1.07			
Oc1ccccc1O [2-OH (catechol), catechol]		2240 µM	3390 µM	Induction of deletion, fold increase over untreated control, Obsd (S. cerevisiae [2]): 2.26 fold
Oc1cc(Cl)c(Cl)c(Cl)c1 [3,4,5-Cl3]	3.3			
CC(C)(C)c1cc(O)cc(C(C)(C)C)c1 [3,5-(C(CH3)3)2]	3.96			
COc1cc(O)cc(OC)c1 [3,5-(OCH3)2]	1.54			
COc1ccc(O)cc1C(C)(C)C [3-C(CH3)3,4-OCH3, 3-tert-butyl-4-methoxy-phenol]		380 µM	490 µM	deletion formation / genotoxicity in words (S. cerevisiae [2]; listed as BHA-3): do not increase the deletion formation; Induction of deletion, fold increase over untreated control, Obsd (S. cerevisiae [2]): 1.17 fold
Oc1cccc(C(F)(F)F)c1 [3-CF3]	2.31			
CCCCCc1ccc(O)cc1 [4-(CH2)4CH3, 4-pentylphenol]		89.1 µM	110 µM	
CCCCCCCCCc1ccc(O)cc1 [4-(CH2)8CH3, 4-nonylphenol]		20 µM	39.8 µM	IC50 (S. cerevisiae [1]; Saccharomyces cerevisiae, 17 h): 20 µM; Induction of deletion, fold increase over untreated control, Obsd (S. cerevisiae [2]): 2.58 fold

Compound	log 1/ICFR50 Obsd (yeast cells)	IC50 (S. cerevisiae [1]; [4])	IC80 (S. cerevisiae [1]; Saccharomyces cerevisiae, 17 h)	further results
Oc1ccc(Br)cc1 [4-Br, 4-bromophenol]	2.4	832 µM	1100 µM	
Cc1ccc(O)c([N+](=O)[O-])c1 [4-CH3,2-NO2]	2.1			
N#Cc1ccc(O)cc1 [4-CN, 4-cyanophenol]		3020 µM	5500 µM	Induction of deletion, fold increase over untreated control, Obsd (S. cerevisiae [2]): 1.25 fold
O=C(O)c1ccc(O)cc1 [4-COOH]	1.75			
Cc1cc(O)cc(C)c1Cl [4-Cl, 3,5-(CH3)2]	2.96			
Oc1ccc(Cl)cc1 [4-Cl, 4-chlorophenol]	2.07	1350 µM	1660 µM	Induction of deletion, fold increase over untreated control, Obsd (S. cerevisiae [2]): 1.85 fold
Oc1ccc(F)cc1 [4-F, 4-fluorophenol]		4790 µM	6170 µM	Induction of deletion, fold increase over untreated control, Obsd (S. cerevisiae [2]): 2.03 fold
Oc1ccccc1 [4-H, phenol]	1.17	11000 µM	14100 µM	Induction of deletion, fold increase over untreated control, Obsd (S. cerevisiae [2]): 2.27 fold
Oc1ccc(I)cc1 [4-I]	2.4			
O=[N+]([O-])c1ccc(O)cc1 [4-NO2, 4-nitrophenol]	2.85	603 µM	813 µM	
CCOc1ccc(O)cc1 [4-OC2H5, 4-ethoxyphenol]		6760 µM	7940 µM	
CCCOc1ccc(O)cc1 [4-OC3H7, 4-propoxyphenol]		1820 µM	2240 µM	
CCCCOc1ccc(O)cc1 [4-OC4H9, 4-butoxyphenol]		525 µM	692 µM	
COc1ccc(O)cc1 [4-OCH3, 4-methoxyphenol]		10500 µM	12300 µM	Induction of deletion, fold increase over untreated control, Obsd (S. cerevisiae [2]): 2.01 fold
Oc1ccc(O)cc1 [4-OH, hydroquinone]		27500 µM	40700 µM	Induction of deletion, fold increase over untreated control, Obsd (S. cerevisiae [2]): 2.25 fold
CC(=O)Nc1ccc(O)cc1 [4-acetamidophenol]				increase in deletion frequencies in words (yeast): did not show a significant increase
CCCCCCCCCCCCc1ccc(O)cc1 [4-dodecylphenol]				inhibition at 350 µM (S. cerevisiae [1]; Saccharomyces cerevisiae, read-out: growth inhibition): 40%; solubility in words (Water solubility): poor water solubility
COc1ccc(O)c(C(C)(C)C)c1 [BHA, butylated hydroxy anisole]				log 1/IC80 Obsd (S. cerevisiae [1]; 80% inhibition of yeast growth, 17 h, 30 °C, OD 655 nm): 3.37; log 1/IC50 Obsd (S. cerevisiae [1]; inhibition of yeast growth, 17 h, 30 °C, OD 655 nm): 3.72; growth phenotype of DNA repair null mutant strains [3]: growth defects in most of the DNA repair null mutant strains tested; also recorded: some level of growth defect; growth phenotype of Δrad4 strain [3]: more resistant; growth phenotype of Δrad14 strain [3]: increased sensitivity; deletion formation / genotoxicity in words (S. cerevisiae [2]): significant increase in deletion events
Cc1cc(C(C)(C)C)c(O)c(C(C)(C)C)c1 [BHT, 2,6-di-tert-butyl-4-methyl-phenol]		132 µM	251 µM	growth phenotype of DNA repair null mutant strains [3]: unresponsive; also recorded: negligible; also recorded: did not cause clear growth defects
CC(C)(c1ccc(O)cc1)c1ccc(O)cc1 [bisphenol-A, bisphenol A]		676 µM	813 µM	
